The values that follow come from patent US20120141496A1, “IAP BIR DOMAIN BINDING COMPOUNDS” (AEGERA THERAPEUTICS, INC., priority 2007, published 2012).

For assay [1], the system named is SKOV-3. Description: Viability assay (MTT based), SKOV-3. It is filed as cell-based. Conditions: Homo sapiens, SK-OV-3, SKOV-3 cells, 72 hours, read-out: SKOV-3 ED50. The method, then:
(§1) MDA-MD-231 (breast) and SKOV-3 cancer cells were cultured in RPMI1640 media supplemented with 10% FBS and 100 units/mL of Penicillin and Streptomycin.
(§2) Viability assays were done on a number of cells including MDA-MB-231, SKOV-3, H460, PC3, HCT-116, and SW480 cells. Cells were seeded in 96 well plates at a respective density of 5000 and 2000 cells per well and incubated at 37° C. in presence of 5% CO2 for 24 hours. Selected compounds were diluted into the media at various concentration ranging from 0.01 uM up to 100 uM. Diluted compounds were added onto the MDA-MB-231 cells. For the MDA-MB-231 SKOV3, H460, PC3, HCT-116, and SW480 cells, the compounds were added either alone or in presence of 1-3 ng/ml of TRAIL. After 72 hours cellular viability was evaluated by MTT based assays.

In assay [2] the test system is MDA-MB-231. As to the kind of experiment: Viability assay (MTT based), MDA-MB-231. The class given is cell-based. Conditions: Homo sapiens, MDA-MB-231 cells, 72 hours, read-out: MDA-MB-231 ED50. The method, then:
as §1, §2

Consider `CN[C@@H](C)C(=O)N[C@@H](Cc1ccc(C#CCO[C@H](C)[C@H](NC(=O)[C@H](C)NC)C(=O)N2CCC[C@H]2CN(CCc2ccccc2)C(=O)[C@H](N)Cc2ccc(OC)cc2)cc1)C(=O)N1CCC[C@H]1CN(CCc1ccccc1)C(=O)C(F)(F)F` [Compound 5], for which the EC50 in assay [1] turned out to be 57 nM.

On to `CN[C@@H](C)C(=O)N[C@@H](Cc1ccc(C#CCO[C@H](C)[C@H](NC(=O)[C@H](CO)NC)C(=O)N2CCC[C@H]2CN(CCc2ccccc2)C(=O)[C@H](N)Cc2ccc(OC)cc2)cc1)C(=O)N1CCC[C@H]1CN(CCc1ccccc1)C(=O)C(F)(F)F` [Compound 6], for which the EC50 in assay [1] was 557 nM.

Consider `CN[C@@H](C)C(=O)N[C@@H](Cc1ccc(C#CCO[C@H](C)[C@H](NC(=O)[C@H](C)NC)C(=O)N2CCC[C@H]2CN(CCc2ccccc2)C(=O)C(F)(F)F)cc1)C(=O)N1CCC[C@H]1CN(CCc1ccccc1)C(=O)C(F)(F)F` [Compound 1], for which the results for the EC50 in assay [1] and in assay [2] were 131 nM and 17 nM, respectively.

Turning to `CN[C@@H](CO)C(=O)N[C@@H](Cc1ccc(C#CCO[C@H](C)[C@H](NC(=O)[C@H](CO)NC)C(=O)N2CCC[C@H]2CN(CCc2ccccc2)C(=O)[C@H](N)Cc2ccc(OC)cc2)cc1)C(=O)N1CCC[C@H]1CN(CCc1ccccc1)C(=O)C(F)(F)F` [Compound 8], the EC50 in assay [1] amounted to 1920 nM.

Regarding `CN[C@@H](C)C(=O)N[C@@H](Cc1ccc(C#CC#Cc2ccc(C[C@H](NC(=O)[C@H](C)NC)C(=O)N3CCC[C@H]3CN(CCc3ccccc3)C(=O)C(F)(F)F)cc2)cc1)C(=O)N1CCC[C@H]1CN(CCc1ccccc1)C(=O)C(F)(F)F` [Compound 3], the EC50 in assay [1] worked out at 67 nM.

Consider `CN[C@@H](C)C(=O)N[C@H](C(=O)N1CCC[C@H]1CN(CCc1ccccc1)C(=O)[C@H](N)Cc1ccc(OC)cc1)[C@@H](C)OCC#Cc1ccc(C[C@H](NC(=O)[C@H](CO)NC)C(=O)N2CCC[C@H]2CN(CCc2ccccc2)C(=O)C(F)(F)F)cc1` [Compound 7], for which the EC50 in assay [1] worked out at 136 nM.

Consider `CN[C@@H](C)C(=O)N[C@@H](Cc1ccc(C#Cc2ccc(C[C@H](NC(=O)[C@H](C)NC)C(=O)N3CCC[C@H]3CN(CCc3ccccc3)C(=O)C(F)(F)F)cc2)cc1)C(=O)N1CCC[C@H]1CN(CCc1ccccc1)C(=O)C(F)(F)F` [Compound 4], for which the EC50 is 37 nM in assay [1] and 159 nM in assay [2].

Turning to `CN[C@@H](C)C(=O)N[C@@H](Cc1ccc(-c2ccc(C[C@H](NC(=O)[C@H](C)NC)C(=O)N3CCC[C@H]3CN(CCc3ccccc3)C(=O)C(F)(F)F)cc2)cc1)C(=O)N1CCC[C@H]1CN(CCc1ccccc1)C(=O)C(F)(F)F` [Compound 2], the EC50 in assay [2] was found to be 150 nM.
